Data from patent US20060247439A1, “Mchir antagonists” (AstraZeneca AB, priority 2002, published 2006).
pIC50: −log10 of the molar value.

target: T1, human Melanin concentrating hormone receptor 1 (MCH1r) (Homo sapiens, UniProt Q99705); assay: MCH1 Receptor Radioligand Binding; details: membranes from HEK293 cells stably expressing human MCH1r; radioligand 125I-MCH
T1 construct: expressed in transfected cells; membranes)
Description: MCH1 Receptor Radioligand Binding.
Assays were performed on membranes prepared from HEK293 cells stably expressing the human Melanin concentrating hormone receptor 1 (MCH1r) (Lembo et al. Nature Cell Biol 1 267-271). Assays were performed in a 96-well plate format in a final reaction volume of 200 μl per well. Each well contained 6,1 μg of membrane proteins diluted in binding buffer (50 mM Tris, 3 mM MgCl2, 0.05% bovine serum albumin (BSA) and the radioligand ^125I-MCH (IM344 Amersham) was added to give 10 000 cpm (counts per Minute) per well Each well contained 2 μl of the appropriate concentration of competitive antagonist prepared in DMSO and left to stand at room temperature for 60 minutes. Non-specific binding was determined as that remaining following incubation with […] MCH (Melanin concentrating hormone, H-1482 Bachem). The reaction was terminated by transfer of the reaction to GF/A filters using a Micro96 Harvester (Skatron Instruments, Norway). Filters were washed with assay buffer; Radioligand retained on the filters was quantified using a1450 Microbeta TRILUX (Wallac, Finland).
Non-specific binding was subtracted from all values determined. Maximum binding was that determined in the absence of any competitor following subtraction of the value determined for non-specific binding. Binding of compounds at various concentrations was plotted according to the equation y=A+(B−A)/1+((C/x)ˆD))) and IC50 estimated where […]
A is the bottom plateau of the curve i.e. the final minimum y value
B is the top of the plateau of the curve i.e. the final maximum y value
C is the x value at the middle of the curve. This represents the log EC50 value when A+B=100 […]
x is the original known x values. y is the original known y values.

T1 sequence (Q99705 whole entry): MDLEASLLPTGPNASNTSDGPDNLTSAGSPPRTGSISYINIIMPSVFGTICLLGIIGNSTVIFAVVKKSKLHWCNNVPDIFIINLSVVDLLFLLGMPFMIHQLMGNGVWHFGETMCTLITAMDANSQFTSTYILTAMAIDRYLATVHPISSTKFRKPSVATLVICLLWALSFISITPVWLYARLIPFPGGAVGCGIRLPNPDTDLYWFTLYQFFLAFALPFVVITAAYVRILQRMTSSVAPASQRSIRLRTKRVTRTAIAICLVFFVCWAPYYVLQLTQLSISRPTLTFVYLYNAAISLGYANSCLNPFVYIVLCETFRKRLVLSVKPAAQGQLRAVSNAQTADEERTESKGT

Structure (SMILES) | pIC50
Clc1ccc(CNC2CCC(Nc3ccc4ccccc4n3)CC2)cc1Cl (mixture of isomers) [Example 29, N-[(3,4-Dichlorophenyl)methyl]-N′-(2-quinolinyl)-1,4-cyclohexanediamine] | 6.40
COc1ccc2nc(NC3CCCC(NCc4cc5ccccc5o4)C3)cc(C)c2c1 (mixture of isomers) [Example 53, N-(1-benzofuran-2-ylmethyl)-N′-(6-methoxy-4-methylquinolin-2-yl)cyclohexane-1,3-diamine] | 6.25
COc1ccc2nc(NCCCNCc3ccsc3)cc(C)c2c1 [Example 2, N-(6-Methoxy-4-methyl-2-quinolinyl)-N′-(3-thienylmethyl)-1,3-propanediamine] | 8.00
